Results as given in patent US10112911B2, “Substituted cyanoguanidines as oral anti-virals” (Abbvie Inc, priority 2012, dated 2018).
Counter-ions that a name gives are not always drawn.

Each molecule was assayed on RSV (Group A, Long Strain) (assay: Cytopathetic effect (CPE) protection antiviral assay, MTT readout). Details: human respiratory syncytial virus, HEp-2, 96 h, HEp-2 cells, 0.2 MOI RSV, 4 days incubation, protection from CPE (Table 1); read-out: RSV EC50.
Assay type: cell-based
Protocol: HEp-2 cells and RSV (Group A, Long Strain) were obtained from the American Type Culture Collection (Manassas, Va.).
A cytopathetic effect (CPE) protection assay was performed to determine the ability of a compound to protect the cells from viral infection and thus the CPE induced by viral infection. 96-Well plates were first seeded with […] per well in Dulbecco's modified Eagle's medium (DMEM) containing 10% fetal bovine serum (FBS). One day after the cells were seeded, they were preincubated with serial dilutions of compounds prepared in 100 μL assay medium (DMEM mixed with F12 medium at a 1:1 ratio, supplemented with 2% FBS and 1 mM sodium pyruvate) for 1 hour at 37° C. 100 μL of assay medium containing 0.2 multiplicity of infection (MOI) of RSV was then added to each well of cells. In addition to wells containing infected cells incubated with compounds, each plate also contained replicates of two kinds of controls: (1) Virus control contained cells infected with 0.2 MOI of RSV in assay medium, (2) Uninfected cell control contained cells incubated with assay medium only. After 4 days of incubation at 37° C., the viability of cells was assessed using MTT (Thiazolyl blue tetrazolium bromide, Sigma). A stock solution of MTT, at a concentration of 4 mg/mL in phosphate-buffered saline, was added to all wells at 25 μL per well. Plates were further incubated for 4 hours, and each well was then treated with 50 μL of a solution containing 20% sodium dodecyl sulfate (SDS) and 0.02 N HCl. After an overnight incubation, the plates were measured on a BioTek® microtiter plate reader at wavelengths of 570 nm and 650 nm. The MTT detection is based on the fact that viable (uninfected) cells can reduce the tetrazolium salts into colored formazan products, which can then be quantitated by spectrometry. Based on the spectrometric absorbance of each sample, the percent of protection from CPE, which is an indicator of protection from viral infection, can be calculated for each compound and the 50% effective concentrations (EC50) can be calculated using a nonlinear regression curve fitting equation provided by the GraphPad Prism® 4 software.
Compounds were tested to determine both their antiviral and toxicity to determine their therapeutic window. Determination of the EC50 and TD50 of these active compounds were repeated one additional time to confirm the window.

SMILES	EC50
CC(C)C1CN(c2cnc3ccccc3n2)CCN1/C(=N\C#N)Nc1ccc(F)cc1 (centres unmarked) [Example 1.23, N′-cyano-N-(4-fluorophenyl)-2-isopropyl-4-(quinoxalin-2-yl)piperazine-1-carboximidamide]	> 10 µM
Cc1ccccc1N/C(=N/C#N)N1CCN(c2ccc3ccccc3n2)CC1C(C)C (centres unmarked) [Example 1.61, N′-cyano-2-isopropyl-N-(2-methylphenyl)-4-(quinolin-2-yl)piperazine-1-carboximidamide]	> 6.6 µM
Cc1ccccc1N/C(=N/C#N)N1CCN(c2cnc3cc(Cl)c(Cl)cc3n2)CC1C(C)C (centres unmarked) [Example 1.58, N′-cyano-4-(6,7-dichloroquinoxalin-2-yl)-2-isopropyl-N-(2-methylphenyl)piperazine-1-carboximidamide]	> 3.2 µM
Cc1ccccc1NC(=NC#N)N1CCN(c2ccc3nccnc3n2)CC1C(C)C (centres unmarked) [Example 1.65, N′-cyano-2-isopropyl-N-(2-methylphenyl)-4-(pyrido[2,3-b]pyrazin-6-yl)piperazine-1-carboximidamide]	5.9 µM
Cc1cccc(F)c1N/C(=N/C#N)N1CCN(c2cnc3ccccc3n2)CC1C(C)C (centres unmarked) [Example 1.33, N′-cyano-N-(2-fluoro-6-methylphenyl)-2-isopropyl-4-(quinoxalin-2-yl)piperazine-1-carboximidamide]	0.3 µM
Cc1ccccc1N/C(=N/C#N)N1CCN(c2nc3ccccc3nc2C)CC1C(C)C (centres unmarked) [Example 1.52, N′-cyano-2-isopropyl-N-(2-methylphenyl)-4-(3-methylquinoxalin-2-yl)piperazine-1-carboximidamide]	> 10 µM
Cc1ccncc1NC(=NC#N)N1CCN(c2cnc3ccccc3n2)CC1C(C)C (centres unmarked) [Example 1.72, N′-cyano-2-isopropyl-N-(4-methylpyridin-3-yl)-4-(quinoxalin-2-yl)piperazine-1-carboximidamide]	> 5.37 µM
Cc1ccccc1N/C(=N/C#N)N1CCN(c2cnc3ccccc3n2)CC12CC2 [Example 1.45, N′-cyano-N-(2-methylphenyl)-7-(quinoxalin-2-yl)-4,7-diazaspiro[2.5]octane-4-carboximidamide]	> 10 µM
Cc1cc(F)ccc1N/C(=N/C#N)N1CCN(c2cnc3ccccc3n2)CC1C(C)C (centres unmarked) [Example 1.32, N′-cyano-N-(4-fluoro-2-methylphenyl)-2-isopropyl-4-(quinoxalin-2-yl)piperazine-1-carboximidamide]	> 10 µM
Cc1ccccc1N/C(=N/C#N)N1CCN(c2nc3ccccc3nc2C(F)(F)F)CC1C(C)C (centres unmarked) [Example 1.53, N′-cyano-2-isopropyl-N-(2-methylphenyl)-4-[3-(trifluoromethyl)quinoxalin-2-yl]piperazine-1-carboximidamide]	> 10 µM
Cc1ccccc1NC(=NC#N)N1CCN(c2nc3ccccc3n2C)CC1C(C)C (centres unmarked) [Example 1.69, N′-cyano-2-isopropyl-4-(1-methyl-1H-benzimidazol-2-yl)-N-(2-methylphenyl)piperazine-1-carboximidamide]	2.99 µM
Cc1cc(F)c(F)cc1N/C(=N/C#N)N1CCN(c2cnc3ccccc3n2)CC1C(C)C (centres unmarked) [Example 1.34, N′-cyano-N-(4,5-difluoro-2-methylphenyl)-2-isopropyl-4-(quinoxalin-2-yl)piperazine-1-carboximidamide]	> 3.1 µM
Cc1ccccc1N/C(=N/C#N)N1CCN(c2cnc3ccc(F)cc3n2)CC1C(C)C (centres unmarked) [Example 1.60, N′-cyano-4-(7-fluoroquinoxalin-2-yl)-2-isopropyl-N-(2-methylphenyl)piperazine-1-carboximidamide]	1.05 µM
CC(C)C1CN(c2cnc3ccccc3n2)CCN1/C(=N\C#N)Nc1cccc(F)c1 (centres unmarked) [Example 1.20, N′-cyano-N-(3-fluorophenyl)-2-isopropyl-4-(quinoxalin-2-yl)piperazine-1-carboximidamide]	> 10 µM
Cc1ccccc1NC(=NC#N)N1CCN(c2ccc3cccnc3n2)CC1C(C)C (centres unmarked) [Example 1.66, N′-cyano-2-isopropyl-N-(2-methylphenyl)-4-(1,8-naphthyridin-2-yl)piperazine-1-carboximidamide]	1.5 µM
Cc1ccccc1N/C(=N/C#N)N1CCN(c2cnc3cc(C(F)(F)F)ccc3n2)CC1C(C)C (centres unmarked) [Example 1.57, N′-cyano-2-isopropyl-N-(2-methylphenyl)-4-[6-(trifluoromethyl)quinoxalin-2-yl]piperazine-1-carboximidamide]	0.29 µM
Cc1ccccc1N/C(=N/C#N)N1CCN(c2cnc3cccc(C(F)(F)F)c3n2)CC1C(C)C (centres unmarked) [Example 1.59, N′-cyano-2-isopropyl-N-(2-methylphenyl)-4-[8-(trifluoromethyl)quinoxalin-2-yl]piperazine-1-carboximidamide]	> 3.2 µM
Cc1ccccc1N/C(=N/C#N)N1CCN(c2cnc3ccccc3n2)CC1C1CCCCC1 (centres unmarked) [Example 1.48, N′-cyano-2-cyclohexyl-N-(2-methylphenyl)-4-(quinoxalin-2-yl)piperazine-1-carboximidamide]	1.34 µM
Cc1ccc(N/C(=N/C#N)N2CCN(c3cnc4ccccc4n3)CC2C(C)C)cc1 (centres unmarked) [Example 1.16, N′-cyano-2-isopropyl-N-(4-methylphenyl)-4-(quinoxalin-2-yl)piperazine-1-carboximidamide]	> 10 µM
CC(C)C1CN(c2cnc3ccccc3n2)CCN1/C(=N\C#N)Nc1ccc(Cl)cc1 (centres unmarked) [Example 1.15, N-(4-chlorophenyl)-N′-cyano-2-isopropyl-4-(quinoxalin-2-yl)piperazine-1-carboximidamide]	> 10 µM
CC(C)C1CN(c2cnc3ccccc3n2)CCN1/C(=N\C#N)Nc1ccc(C(F)(F)F)cc1 (centres unmarked) [Example 1.24, N′-cyano-2-isopropyl-4-(quinoxalin-2-yl)-N-[4-(trifluoromethyl)phenyl]piperazine-1-carboximidamide]	> 6.68 µM
CC(C)C1CN(c2cnc3ccccc3n2)CCN1/C(=N\C#N)Nc1ccc(F)cc1Cl (centres unmarked) [Example 1.30, N-(2-chloro-4-fluorophenyl)-N′-cyano-2-isopropyl-4-(quinoxalin-2-yl)piperazine-1-carboximidamide]	> 10 µM
CC(C)C1CN(c2cnc3ccccc3n2)CCN1/C(=N\C#N)Nc1cccc(C(F)(F)F)c1 (centres unmarked) [Example 1.25, N′-cyano-2-isopropyl-4-(quinoxalin-2-yl)-N-[3-(trifluoromethyl)phenyl]piperazine-1-carboximidamide]	> 7.29 µM
COc1ccccc1N/C(=N/C#N)N1CCN(c2cnc3ccccc3n2)CC1C(C)C (centres unmarked) [Example 1.18, N′-cyano-2-isopropyl-N-(2-methoxyphenyl)-4-(quinoxalin-2-yl)piperazine-1-carboximidamide]	1.16 µM
Cc1cccc(N/C(=N/C#N)N2CCN(c3cnc4ccccc4n3)CC2C(C)C)c1 (centres unmarked) [Example 1.22, N′-cyano-2-isopropyl-N-(3-methylphenyl)-4-(quinoxalin-2-yl)piperazine-1-carboximidamide]	0.4 µM
CCC(C)C1CN(c2cnc3ccccc3n2)CCN1/C(=N\C#N)Nc1ccccc1C (centres unmarked) [Example 1.47, 2-sec-butyl-N′-cyano-N-(2-methylphenyl)-4-(quinoxalin-2-yl)piperazine-1-carboximidamide]	> 1.38 µM
Cc1ccccc1N(C)C(=NC#N)N1CCN(c2cnc3ccccc3n2)CC1C(C)C (centres unmarked) [Example 1.75, N′-cyano-2-isopropyl-N-methyl-N-(2-methylphenyl)-4-(quinoxalin-2-yl)piperazine-1-carboximidamide]	3.4 µM
Cc1ccccc1CN/C(=N/C#N)N1CCN(c2cnc3ccccc3n2)CC1C(C)C (centres unmarked) [Example 1.35, N′-cyano-2-isopropyl-N-(2-methylbenzyl)-4-(quinoxalin-2-yl)piperazine-1-carboximidamide]	> 10 µM
CC(C)C1CN(c2cnc3ccccc3n2)CCN1/C(=N\C#N)Nc1ccccc1OC(F)(F)F (centres unmarked) [Example 1.27, N′-cyano-2-isopropyl-4-(quinoxalin-2-yl)-N-[2-(trifluoromethoxy)phenyl]piperazine-1-carboximidamide]	> 10 µM
Cc1ccc(F)cc1N/C(=N/C#N)N1CCN(c2cnc3ccccc3n2)CC1C(C)C (centres unmarked) [Example 1.31, N′-cyano-N-(5-fluoro-2-methylphenyl)-2-isopropyl-4-(quinoxalin-2-yl)piperazine-1-carboximidamide]	2 µM

Same assay, conditions: human respiratory syncytial virus, HEp-2, 96 h, read-out: RSV EC50

SMILES	EC50
Cc1ccccc1N/C(=N/C#N)N1CCN(c2cnc3ccccc3n2)C[C@H]1C(C)C [Example 1.12, (2R)—N′-cyano-2-isopropyl-N-(2-methylphenyl)-4-(quinoxalin-2-yl)piperazine-1-carboximidamide trifluoroacetate]	> 32 µM
Cc1ccccc1NC(=NC#N)N1CCN(c2cnc3ccccc3n2)CCC1C(C)C (centres unmarked) [Example 3.1, N′-cyano-7-isopropyl-N-(2-methylphenyl)-4-(quinoxalin-2-yl)-1,4-diazepane-1-carboximidamide]	> 32 µM
